In patent publication US20250026769A1, “PAPD5 INHIBITORS AND METHODS OF USE THEREOF” (The Children's Medical Center Corporation, priority 2021, published 2025):

Target: T1, rPAPD5 (Homo sapiens, UniProt Q8NDF8)
T1 construct: made in house
Assay: differential scanning fluorimetry (DSF) binding and stabilization of rPAPD5
Details: 100 μM test compound; shift vs DMSO control; read-out: ΔTm at 100 μM
Experimental: Binding and stabilization of rPAPD5 by test compounds was determined using differential scanning fluorimetry (DSF). DSF assays were performed to determine protein melting temperature using an indicator dye SYPRO orange (Thermo Fisher Scientific, S6651) diluted 1:5000 in […] of buffer containing […], […] (Jena Biosciences), 25 mM Tris-HCl, 5 mM MgCl2, 50 mM KCl. […] DMSO was used as a negative control. Each curve was an average of three measurements and Thermal Shift software (Thermo Fisher Scientific, 4466038) was used for analysis. […] The change in melting temperature (ΔTm) is in reference to the DMSO control. Referring to Table 2, “+” refers to ΔTm values below 1° C., “++” refers to ΔTm values from 1 to 5° C., and “+++” refers to ΔTm values above 5° C.

T1 sequence (Q8NDF8 68-698 isoform Q8NDF8-5 limits assumed): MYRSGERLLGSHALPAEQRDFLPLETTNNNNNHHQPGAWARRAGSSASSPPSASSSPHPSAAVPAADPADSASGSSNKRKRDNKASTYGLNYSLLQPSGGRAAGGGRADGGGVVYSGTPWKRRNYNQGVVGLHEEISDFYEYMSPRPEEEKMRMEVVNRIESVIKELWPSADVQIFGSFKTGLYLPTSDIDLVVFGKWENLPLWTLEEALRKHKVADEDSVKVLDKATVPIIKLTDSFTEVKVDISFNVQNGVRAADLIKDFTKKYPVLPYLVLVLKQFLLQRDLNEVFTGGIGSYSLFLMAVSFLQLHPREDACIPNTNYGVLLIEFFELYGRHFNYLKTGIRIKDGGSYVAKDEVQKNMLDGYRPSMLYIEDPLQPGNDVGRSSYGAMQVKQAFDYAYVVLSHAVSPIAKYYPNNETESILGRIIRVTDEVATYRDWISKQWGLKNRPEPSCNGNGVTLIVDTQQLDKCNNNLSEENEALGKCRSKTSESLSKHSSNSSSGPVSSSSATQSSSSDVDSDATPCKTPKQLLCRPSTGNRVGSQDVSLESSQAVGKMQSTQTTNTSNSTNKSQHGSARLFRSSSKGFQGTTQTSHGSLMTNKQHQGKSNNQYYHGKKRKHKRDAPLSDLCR

| SMILES | ΔTm at 100 µM [°C] |
| --- | --- |
| O=C(O)c1ccccc1Nc1c(S(=O)(=O)N2CCOCC2)cnc2ccc(NC3CCOCC3)cc12 [Compound 237A, 2-[[3-morpholinosulfonyl-6-(tetrahydropyran-4-ylamino)-4-quinolyl]amino]benzoic acid] | < 1 |
| O=C(O)c1ccccc1Nc1c(S(=O)(=O)N2CCOCC2)cnc2ccc(NC3CCC(F)(F)CC3)cc12 [Compound 238A, 2-[[6-[(4,4-difluorocyclohexyl)amino]-3-morpholinosulfonyl-4-quinolyl]amino]benzoic acid] | 1 to 5 |
| O=C(O)c1ccccc1Nc1c(S(=O)(=O)N2CCOCC2)cnc2ccc(NC3CCNCC3)cc12 [Compound 239A, 2-[[3-morpholinosulfonyl-6-(4-piperidylamino)-4-quinolyl]amino]benzoic acid] | 1 to 5 |
| O=C(O)c1ccccc1Nc1c(S(=O)(=O)N2CCOCC2)cnc2ccc(Nc3ccncc3)cc12 [Compound 240A, 2-[[3-morpholinosulfonyl-6-(4-pyridylamino)-4-quinolyl]amino]benzoic acid] | 1 to 5 |
| O=C(O)c1ccccc1Nc1c(S(=O)(=O)N2CCOCC2)cnc2ccc(Nc3ncco3)cc12 [Compound 241A, 2-[[3-morpholinosulfonyl-6-(oxazol-2-ylamino)-4-quinolyl]amino]benzoic acid] | > 5 |
| O=C(O)c1ccccc1Nc1c(S(=O)(=O)N2CCOCC2)cnc2ccc(Nc3ccc4[nH]cnc4c3)cc12 [Compound 247A, 2-[[6-(1H-benzimidazol-5-ylamino)-3-morpholinosulfonyl-4-quinolyl]amino]benzoic acid] | 1 to 5 |
| O=C(O)c1ccccc1Nc1c(S(=O)(=O)N2CCOCC2)cnc2ccc(N3CCOCC3)cc12 [Compound 248A, 2-[(6-morpholino-3-morpholinosulfonyl-4-quinolyl)amino]benzoic acid] | 1 to 5 |
| NS(=O)(=O)c1ccc2ncc(S(=O)(=O)N3CCOCC3)c(Nc3ccccc3C(=O)O)c2c1 [Compound 249A, 2-[(3-morpholinosulfonyl-6-sulfamoyl-4-quinolyl)amino]benzoic acid] | > 5 |
| O=C(O)c1ccccc1Nc1c(S(=O)(=O)N2CCOCC2)cnc2ccccc12 [Compound 250A, 2-[(3-morpholinosulfonyl-4-quinolyl)amino]benzoic acid] | > 5 |
| O=C(O)c1c(Nc2c(S(=O)(=O)N3CCOCC3)cnc3ccc(Cl)cc23)cccc1-c1ncco1 [Compound 261A, 2-[(6-chloro-3-morpholinosulfonyl-4-quinolyl)amino]-6-oxazol-2-yl-benzoic acid] | < 1 |
| O=C(O)c1cc(B(O)O)ccc1Nc1c(S(=O)(=O)N2CCOCC2)cnc2ccc(Cl)cc12 [Compound 263A, 5-borono-2-[(6-chloro-3-morpholinosulfonyl-4-quinolyl)amino]benzoic acid] | > 5 |
| O=C(O)c1cc(O)ccc1Nc1c(S(=O)(=O)N2CCOCC2)cnc2ccc(Cl)cc12 [Compound 265A, 2-[(6-chloro-3-morpholinosulfonyl-4-quinolyl)amino]-5-hydroxy-benzoic acid] | > 5 |
| O=C(O)c1cc(Br)ccc1Nc1c(S(=O)(=O)N2CCOCC2)cnc2ccc(Cl)cc12 [Compound 268A, 5-bromo-2-[(6-chloro-3-morpholinosulfonyl-4-quinolyl)amino]benzoic acid] | < 1 |
| O=C(O)c1cc(C(F)(F)F)ccc1Nc1c(S(=O)(=O)N2CCOCC2)cnc2ccc(Cl)cc12 [Compound 271A, 2-[(6-chloro-3-morpholinosulfonyl-4-quinolyl)amino]-5-(trifluoromethyl)benzoic acid] | 1 to 5 |
| Cc1ccc(C(=O)O)c(Nc2c(S(=O)(=O)N3CCOCC3)cnc3ccc(Cl)cc23)c1 [Compound 272A, 2-[(6-chloro-3-morpholinosulfonyl-4-quinolyl)amino]-4-methyl-benzoic acid] | > 5 |
| O=C(O)c1ccc(O)cc1Nc1c(S(=O)(=O)N2CCOCC2)cnc2ccc(Cl)cc12 [Compound 273A, 2-[(6-chloro-3-morpholinosulfonyl-4-quinolyl)amino]-4-hydroxy-benzoic acid] | 1 to 5 |
| O=C(O)c1ccc(Cl)cc1Nc1c(S(=O)(=O)N2CCOCC2)cnc2ccc(Cl)cc12 [Compound 274A, 4-chloro-2-[(6-chloro-3-morpholinosulfonyl-4-quinolyl)amino]benzoic acid] | > 5 |
| O=C(O)c1ccc(F)cc1Nc1c(S(=O)(=O)N2CCOCC2)cnc2ccc(Cl)cc12 [Compound 275A, 2-[(6-chloro-3-morpholinosulfonyl-4-quinolyl)amino]-4-fluoro-benzoic acid] | > 5 |
| O=C(O)c1ccc(Br)cc1Nc1c(S(=O)(=O)N2CCOCC2)cnc2ccc(Cl)cc12 [Compound 276A, 4-bromo-2-[(6-chloro-3-morpholinosulfonyl-4-quinolyl)amino]benzoic acid] | > 5 |

| SMILES | ΔTm at 100 µM [°C] |
| --- | --- |
| COc1ccc(C(=O)O)c(Nc2c(S(=O)(=O)N3CCOCC3)cnc3ccc(Cl)cc23)c1 [Compound 277A, 2-[(6-chloro-3-morpholinosulfonyl-4-quinolyl)amino]-4-methoxy-benzoic acid] | > 5 |
| O=C(O)c1ccc(C(F)(F)F)cc1Nc1c(S(=O)(=O)N2CCOCC2)cnc2ccc(Cl)cc12 [Compound 278A, 2-[(6-chloro-3-morpholinosulfonyl-4-quinolyl)amino]-4-(trifluoromethyl)benzoic acid] | 1 to 5 |
| O=C(O)c1cccc(O)c1Nc1c(S(=O)(=O)N2CCOCC2)cnc2ccc(Cl)cc12 [Compound 279A, 2-[(6-chloro-3-morpholinosulfonyl-4-quinolyl)amino]-3-hydroxy-benzoic acid] | 1 to 5 |
| O=C(O)c1cccc(Cl)c1Nc1c(S(=O)(=O)N2CCOCC2)cnc2ccc(Cl)cc12 [Compound 280A, 3-chloro-2-[(6-chloro-3-morpholinosulfonyl-4-quinolyl)amino]benzoic acid] | > 5 |
| O=C(O)c1cccc(F)c1Nc1c(S(=O)(=O)N2CCOCC2)cnc2ccc(Cl)cc12 [Compound 281A, 2-[(6-chloro-3-morpholinosulfonyl-4-quinolyl)amino]-3-fluoro-benzoic acid] | > 5 |
| O=C(O)c1cccc(Br)c1Nc1c(S(=O)(=O)N2CCOCC2)cnc2ccc(Cl)cc12 [Compound 282A, 3-bromo-2-[(6-chloro-3-morpholinosulfonyl-4-quinolyl)amino]benzoic acid] | > 5 |
| Cc1cccc(C(=O)O)c1Nc1c(S(=O)(=O)N2CCOCC2)cnc2ccc(Cl)cc12 [Compound 283A, 2-[(6-chloro-3-morpholinosulfonyl-4-quinolyl)amino]-3-methyl-benzoic acid] | > 5 |
| COc1cccc(C(=O)O)c1Nc1c(S(=O)(=O)N2CCOCC2)cnc2ccc(Cl)cc12 [Compound 284A, 2-[(6-chloro-3-morpholinosulfonyl-4-quinolyl)amino]-3-methoxy-benzoic acid] | 1 to 5 |
| O=C(O)c1cccc(C(F)(F)F)c1Nc1c(S(=O)(=O)N2CCOCC2)cnc2ccc(Cl)cc12 [Compound 285A, 2-[(6-chloro-3-morpholinosulfonyl-4-quinolyl)amino]-3-(trifluoromethyl)benzoic acid] | < 1 |
| O=C(O)c1ccc(B(O)O)cc1Nc1c(S(=O)(=O)N2CCOCC2)cnc2ccc(Cl)cc12 [Compound 289A, 4-borono-2-[(6-chloro-3-morpholinosulfonyl-4-quinolyl)amino]benzoic acid] | > 5 |
| NS(=O)(=O)c1ccc(Nc2c(S(=O)(=O)N3CCOCC3)cnc3ccc(Cl)cc23)c(C(=O)O)c1 [Compound 290A, 2-[(6-chloro-3-morpholinosulfonyl-4-quinolyl)amino]-5-sulfamoyl-benzoic acid] | < 1 |
| O=S(=O)(c1cnc2ccc(Cl)cc2c1Nc1ccccc1B(O)O)N1CCOCC1 [Compound 292A, [2-[(6-chloro-3-morpholinosulfonyl-4-quinolyl)amino]phenyl]boronic acid] | 1 to 5 |
| O=C(O)c1cc(C(O)C(F)(F)F)ccc1Nc1c(S(=O)(=O)N2CCOCC2)cnc2ccc(Cl)cc12 (centres unmarked) [Compound 293A, 2-[(6-chloro-3-morpholinosulfonyl-4-quinolyl)amino]-5-(2,2,2-trifluoro-1-hydroxy-ethyl)benzoic acid] | 1 to 5 |
| O=C(O)c1ccccc1Nc1c(C2=CCSCC2)cnc2ccc(Cl)cc12 [Compound 299A, 2-[[6-chloro-3-(3,6-dihydro-2H-thiopyran-4-yl)-4-quinolyl]amino]benzoic acid] | > 5 |
| O=C(O)c1cc(F)ccc1Nc1c(-c2ncco2)cnc2ccc(Cl)cc12 [Compound 300A, 2-[(6-chloro-3-oxazol-2-yl-4-quinolyl)amino]-5-fluoro-benzoic acid] | > 5 |
| COc1ccc(Nc2c(-c3ncco3)cnc3ccc(Cl)cc23)c(C(=O)O)c1 [Compound 302A, 2-[(6-chloro-3-oxazol-2-yl-4-quinolyl)amino]-5-methoxy-benzoic acid] | > 5 |
| O=C(O)c1cc(F)ccc1Nc1c(C2=CCOCC2)cnc2ccc(Cl)cc12 [Compound 304A, 2-[[6-chloro-3-(3,6-dihydro-2H-pyran-4-yl)-4-quinolyl]amino]-5-fluoro-benzoic acid] | > 5 |
| COc1ccc(Nc2c(C3=CCOCC3)cnc3ccc(Cl)cc23)c(C(=O)O)c1 [Compound 308A, 2-[[6-chloro-3-(3,6-dihydro-2H-pyran-4-yl)-4-quinolyl]amino]-5-methoxy-benzoic acid] | > 5 |
| CCc1ccc(Nc2c(S(=O)(=O)N3CCOCC3)cnc3ccc(Cl)cc23)c(C(=O)O)c1 [Compound 318A, 2-[(6-chloro-3-morpholinosulfony 1-4-quinolyl)amino]-5-ethyl-benzoic acid] | > 5 |
